Results on 5 compounds are retold here after patent publication US4624953A, “1-piperazinocarboxylates and pharmaceutical compositions containing them” (priority 1981, dated 1986).

Like-named read-outs stand apart in the source and are kept apart here.

Experiment [1] deals with isolation-induced aggressive behaviour. As to the kind of experiment: Isolation-induced aggressive behaviour test. The class given is in vivo, male NMRI mice. Conditions: Mus musculus, sc, read-out: ED50, isolation induced aggressive behaviour. The text has this:
Male mice subjected to prolonged isolation develop aggressive behaviour against each other when paired (Yen, C. Y. et al., Arch. Int. Pharmacodyn. 123, 179, (1959); Valzelli, L., Adv. Pharmacol. 5, 79 (1967)). […] The clinical correlation of this test indicates tranquillizing and anxiolytic activities as well as antiaggressive properties as such (Duncan, R. L. et al., J. Med. Chem. 13, 1 (1970)).
This type of aggression is interesting because it is known that this kind of emotional behaviour might be located in limbic structures in the brain (MacLean, P. D., Psychosom. Med. 11, 338 (1949)).
Every week male NMRI mice, weighing 20-22 g, were isolated in Makrolon cages for three weeks with diet and water ad libitum. A piece of cardboard was placed between the cages to prevent visual contact.
To test aggressiveness the mice were paired in a neutral area, a beaker (14 cm high and diameter 14 cm). A pair is considered aggressive if both the animals show clear signs of fighting within 5 min. This fighting is characterized by biting and vocalization. As soon as fighting is seen, the mice are separated and brought to their home cage. […] Animals showing no aggression are discarded. […] The test substance is administered s.c. (0.2-0.4 ml/20 g). The mice are paired 0.5 h after the injection for trials of 5 min. duration.
The ED50 -value (mg/kg) reported is the dose inhibiting aggressive behaviour among 50 percent of the pairs 0.5 hour after drug administration.

The subject of experiment [2] is conditioned avoidance response. As to the kind of experiment: Conditioned avoidance response (CAR), shuttle box. It is filed as in vivo, female rats. Conditions: Rattus norvegicus, sc. The procedure:
The effect of the test compounds on CAR was evaluated in a shuttle box, manufactured by Ugo Basile, Italy. The female rats, weighing 150 g, were trained to avoid an electric shock (unconditioned stimulus--US) by escaping from one compartment to the other when the light from a 15 W lamp switched on (conditions stimulus--CS). When they responded to the CS, a conditioned response (CR) was considered to have been elicited.
Rats showing a stable CR of more than 80% after a three weeks' training program were used in the experiments. Groups of six rats were subcutaneously administered with various doses of the test compounds. 11/2 and 4 hours after the administration each rat was placed in the experimental box and the effect on CR was evaluated.
The mechanisms regulating conditioned responses are very complex. Both catecholaminergic and hormonal factors are of importance. [drawing 13]

The test system of experiment [3] is isolation-induced aggressive behaviour. To be noted: background statement on clinically used drugs; cited from earlier work.
Setting [4] is: 0.5 h after administration, dose inhibiting aggressive behaviour among 50 percent of the pairs.
[5] abbreviates: 1.5 hr after administration, dose inhibiting CR in 50% of the animals, read-out: ED50, conditioned avoidance behaviour, 1.5 hr.
Setting [6] is: 4 hr after administration, dose inhibiting CR in 50% of the animals, read-out: ED50, conditioned avoidance behaviour, 4 hr.

In the case of `CN(C)CCC=C1c2ccccc2CCc2ccccc21` [Amitriptyline], the ED50 in experiment [1] (setting [4]) stood at 5 mg/kg.
Consider `CN(C)CCCN1c2ccccc2Sc2ccc(Cl)cc21` [Chlorpromazine], for which the ED50 was 1.4 mg/kg in experiment [1] (0.5 h); 3.5 mg/kg in experiment [2] (1.5 h, read-out: ED50, conditioned avoidance behaviour, 1.5 hr); 5.2 mg/kg in experiment [2] (4 h, read-out: ED50, conditioned avoidance behaviour, 4 hr).
With `CN1C(=O)CN=C(c2ccccc2)c2cc(Cl)ccc21` [Diazepam], in experiment [3], the “activity on isolation-induced aggressive behaviour (in words)” value is given as “active on this kind of aggressive behaviour”.
For `COC(=O)N1CCN(CCCC(c2ccc(F)cc2)c2ccc(F)cc2)CC1.Cl` [I (a), 1-Carbomethoxy-4-[4,4-bis(p-fluorophenyl)butyl]piperazine hydrochloride], the ED50 in experiment [1] (setting [4]) was 6 mg/kg; in experiment [2] (setting [5]), 45 mg/kg; in experiment [2] (setting [6]), 12 mg/kg.
The corresponding values for `CSc1ccc2c(c1)N(CCC1CCCCN1C)c1ccccc1S2` (centres unmarked) [Thioridazine] are 5 mg/kg, 41 mg/kg and 40 mg/kg.
